Test results taken from article PMC9981942, “Pharmacokinetics and tissue distribution of Ramulus Mori (Sangzhi) alkaloids in rats and its effects on liver enzyme activity” (Frontiers in Pharmacology, 2023).
“And” between values parts separate entries of the source, which are not always exact repeats. Equal values may be shown once. Read-outs that look alike come from different tables or passages of the source.

What was measured:
[1] = Pharmacokinetic study: plasma levels after oral SZ-A in SD rats (LC-MS/MS, DAS 3.2.8); assay type: in vivo; details: plasma, plasma; for Tmax / AUC(0-inf) / AUC(0-t) / Cmax / half-life / MRT last / MRT inf: both sexes, rat; for Tmax: SD, po; for AUC(0-inf) / AUC(0-t) / Cmax / half-life / CLz / VRT(0-t) / VRT(0-∞) / Vz: n=8; for MRT last: n=8, read-out: MRT(0-t); for MRT inf: n=8, read-out: MRT(0-∞)
Protocol: Twenty-four SD rats were fasted for 12 h (free access to water) and randomly classified into three groups (n = 8; half male and female) that received different doses of SZ-A solution (25, 50, and 200 mg/kg) via oral administration. After completion of dose administration, blood samples (0.3 mL) were collected through an indwelling catheter from the jugular vein at predetermined time points (5, 15, 30, and 45 min, 1, 2, 4, 8, and 24 h). The blood was centrifuged at 5,000 rpm for 10 min to separate the plasma. All plasma samples were stored frozen at −80°C until liquid chromatography coupled to tandem mass spectrometry (LC-MS/MS) analysis (AB SCIEX Triple Quad™ 4,500 mass spectrometer, Applied Biosystems Inc., United States).
Primary pharmacokinetic parameters, including Cmax, Tmax, area under the plasma concentration-time curve (AUC), t1/2, clearance rate, and the apparent volume of distribution, were calculated using DAS 3.2.8 (Bio Guider Co., Shanghai, China).

[2] = Tissue distribution after single oral SZ-A (20 mg/kg) in ICR mice; assay type: in vivo
Protocol: Twenty SD rats were randomly classified into four groups corresponding to four-time points (5 and 30 min, 4 and 12 h) (n = 20; 5 animals per time point) that received SZ-A solution (40 mg/kg) via oral administration. After the completion of dose administration, plasma and tissue samples (derived from the heart, liver, spleen, lung, kidney, aortic blood vessels, brown adipose tissue, subcutaneous adipose tissue, abdominal adipose tissue, muscle (thigh skeletal muscle), pancreas, and brain) were collected at predetermined time points. Twenty-eight ICR mice were randomly classified into four groups (n = 7 per group) corresponding to four-time points (5 and 30 min, 4 and 12 h) that received SZ-A solution (20 mg/kg) via oral administration. After the completion of dose administration, tissue samples (derived from the heart, liver, spleen, lung, kidney, aortic blood vessels, brown adipose tissue, abdominal adipose tissue, muscle (thigh skeletal muscle), pancreas, and brain) were collected at predetermined time points.
Collected tissue samples were washed with normal saline. The surface moisture was removed by blotting gently with filter paper, and the weight was recorded. After adding an appropriate amount of normal saline, these tissue samples were ground into homogenates using a cryogenic grinder (JX-CL, Shanghai Jingxin, Shanghai, China). The obtained homogenates were stored at −80°C until LC-MS/MS analysis.

[3] = Identification of metabolites in HLMs/RLMs and rat plasma (Q-Extractive high-resolution MS); assay type: in vitro ADME, human; details: HLMs/RLMs and rat plasma reaction system
Protocol: Furthermore, 5 μL of the supernatant was collected for LC-MS/MS analysis. The LC-MS/MS conditions were as follows: chromatographic column (XBridge™ Amide, 3.5 µm, 4.6 × 150 mm); mobile phase, water (0.1% ammonia) and acetonitrile, other conditions are the same as those in CYP450s inhibition study, with the following scan parameters: resolution, 70,000; AGC target, 3,000,000; maximum IT, 200 ms; and scan range, 50–600 m/z.

[4] = design: method as in Yang et al., 2017; details: ref Yang et al., 2017, cited from earlier work
rat CYP2C11 = target: T1, rat CYP2C11 (Rattus norvegicus, UniProt P08683); assay: Inhibition of CYP450s in rat liver microsomes, probe mephenytoin; details: RLMs; SZ-A 8.899 μg/mL, DNJ 20 μM, FA 5 μM, DAB 8 μM
T1 sequence (P08683 1-500): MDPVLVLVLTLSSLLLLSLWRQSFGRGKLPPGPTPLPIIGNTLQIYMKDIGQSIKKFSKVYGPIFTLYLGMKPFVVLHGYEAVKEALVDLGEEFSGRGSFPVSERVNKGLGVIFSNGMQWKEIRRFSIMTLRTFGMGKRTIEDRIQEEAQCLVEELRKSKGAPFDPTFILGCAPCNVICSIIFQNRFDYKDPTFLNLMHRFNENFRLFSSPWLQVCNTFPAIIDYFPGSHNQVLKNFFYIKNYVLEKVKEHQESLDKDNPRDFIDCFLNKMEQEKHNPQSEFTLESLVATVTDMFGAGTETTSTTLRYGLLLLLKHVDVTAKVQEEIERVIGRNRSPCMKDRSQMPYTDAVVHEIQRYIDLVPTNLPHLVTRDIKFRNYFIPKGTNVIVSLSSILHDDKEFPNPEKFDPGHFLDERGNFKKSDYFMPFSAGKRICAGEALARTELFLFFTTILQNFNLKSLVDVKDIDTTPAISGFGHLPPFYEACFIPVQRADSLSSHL

[5] = system: CYP450s in RLMs (other isoenzymes); assay: Effect on activity of rat liver microsome isoenzymes other than CYP2C11; details: SZ-A 8.899 μg/mL, DNJ 20 μM, FA 5 μM, DAB 8 μM
major CYP450s in HLMs = assay: Effect on activity of the major CYP450s in human liver microsomes (all isoforms together); details: final concentration SZ-A 8.899 μg/mL (equivalent to DNJ 20 μM), FA 5 μM, DAB 8 μM

Tmax ([1]; 25 mg/kg, oral SZ-A 25 mg/kg, n=8, read-out: Tmax): 0.31 ± 0.12 h | Tmax ([1]; 50 mg/kg, oral SZ-A 50 mg/kg, n=8, read-out: Tmax): 0.44 ± 0.35 h | Tmax ([1]; 200 mg/kg, oral SZ-A 200 mg/kg, n=8, read-out: Tmax): 0.75 ± 0.3 h | Tmax ([1]; 200 mg/kg, oral SZ-A 25, 50 and 200 mg/kg, read-out: time to maximum plasma concentration (Tmax), all dose groups): ≤ 0.88 h | AUC(0-inf) ([1]; oral SZ-A 25 mg/kg): 1360 ± 299 ng·h/mL | AUC(0-t) ([1]; oral SZ-A 25 mg/kg): 1360 ± 299 ng·h/mL | Cmax ([1]; oral SZ-A 25 mg/kg): 1050 ± 141 ng/mL | half-life ([1]; oral SZ-A 25 mg/kg): 1.16 ± 0.31 h | MRT last ([1]; oral SZ-A 25 mg/kg): 1.26 ± 0.17 h | MRT inf ([1]; oral SZ-A 25 mg/kg): 1.26 ± 0.17 h | AUC(0-inf) ([1]; oral SZ-A 50 mg/kg): 2660 ± 367 ng·h/mL | AUC(0-t) ([1]; oral SZ-A 50 mg/kg): 2660 ± 367 ng·h/mL | Cmax ([1]; oral SZ-A 50 mg/kg): 1770 ± 632 ng/mL | half-life ([1]; oral SZ-A 50 mg/kg): 1.2 ± 0.03 h | MRT last ([1]; oral SZ-A 50 mg/kg): 1.45 ± 0.56 h | MRT inf ([1]; oral SZ-A 50 mg/kg): 1.45 ± 0.56 h | AUC(0-inf) ([1]; oral SZ-A 200 mg/kg): 7630 ± 2040 ng·h/mL | AUC(0-t) ([1]; oral SZ-A 200 mg/kg): 7630 ± 2040 ng·h/mL | Cmax ([1]; oral SZ-A 200 mg/kg): 3640 ± 1370 ng/mL | half-life ([1]; oral SZ-A 200 mg/kg): 1.08 ± 0.04 h | MRT last ([1]; oral SZ-A 200 mg/kg): 1.6 ± 0.26 h | MRT inf ([1]; oral SZ-A 200 mg/kg): 1.6 ± 0.26 h | CLz ([1]; oral SZ-A 25 mg/kg): 45.3 ± 11 mL/min/kg | VRT(0-t) ([1]; oral SZ-A 25 mg/kg): 1.25±0.51 h^2 | VRT(0-∞) ([1]; oral SZ-A 25 mg/kg): 1.25±0.51 h^2 | Vz ([1]; oral SZ-A 25 mg/kg): 4.47 ± 1.53 L/kg | CLz ([1]; oral SZ-A 50 mg/kg): 45.2 ± 6.17 mL/min/kg | VRT(0-t) ([1]; oral SZ-A 50 mg/kg): 1.83±2.07 h^2 | VRT(0-∞) ([1]; oral SZ-A 50 mg/kg): 1.83±2.07 h^2 | Vz ([1]; oral SZ-A 50 mg/kg): 4.70 ± 0.65 L/kg | CLz ([1]; oral SZ-A 200 mg/kg): 65.7 ± 16.7 mL/min/kg | VRT(0-t) ([1]; oral SZ-A 200 mg/kg): 1.92±0.81 h^2 | VRT(0-∞) ([1]; oral SZ-A 200 mg/kg): 1.92±0.81 h^2 | Vz ([1]; oral SZ-A 200 mg/kg): 6.20 ± 1.82 L/kg | distribution in aortic vessels compared with other tissues [2]: lower than that in other tissues | tissues with the highest concentrations [2]: kidney, followed by the liver | effect on rat CYP2C11 (rat CYP2C11): mild activation effect | effect on other isoenzymes in RLMs [5]: no obvious effect | effect on the major CYP450s in HLMs, either inhibition or activation (major CYP450s in HLMs): no significant effect
SMILES: OC[C@H]1NC[C@@H](O)[C@@H]1O [DAB, 1,4-dideoxy-1,4-imino-D-arabinitol]
metabolites found [3]: no detectable phase I and phase II metabolites | form excreted ([4]; material conservation within 24 h after oral administration of SZ-A): mainly excreted in their original forms | oral absolute bioavailability ([4]; rats, after oral administration of SZ-A): 78.23% and > 70% | pharmacokinetic profile versus dose ([4]; rats, oral SZ-A 20–500 mg/kg): non-linear pharmacokinetics
